Earlier results, collected in patent publication US9744157B2, “Combinations of solifenacin and salivary stimulants for the treatment of overactive bladder” (TheraVida, Inc., priority 2011, dated 2017).

System: saliva output
Conditions: 5 mg of pilocarpine

Structure (SMILES): CC[C@@H]1C(=O)OC[C@@H]1Cc1cncn1C [pilocarpine]
- time of maximum saliva output after administration: about 30 minutes
